# Experiments:
# Assay in all cases: Growth inhibition on agar plates, crystalline material swabbed on
# Type in all cases: cell-based
# Staphylococcus aureus = tested on: Staphylococcus aureus
# Source text: (§1) A chalky, white substance presumptively identified as monosodium urate monohydrate crystals was extracted from the subcutaneous area of an elbow of a patient presenting with a soft tissue gouty tophus at the elbow. […] The crystalline substance was swabbed onto agar plates containing Staphylococcus aureus, Staphylococcus pyogenes, Neisseria meningitis, Neisseria gonorrhorea, Escherichia coli, Methicillin resistant Staphylococcus aureus, Haemophilus influenza or Serratia Marcessens. The crystalline material inhibited the growth of the microorganisms as indicated below in Table 1.
# Serratia Marcessens = conditions: agar plate containing Serratia Marcessens
# Source text: as §1
# Neisseria meningitis = conditions: agar plate containing Neisseria meningitis
# Source text: as §1
# Staphylococcus pyogenes = conditions: agar plate containing Staphylococcus pyogenes
# Source text: as §1
# Haemophilus influenza = conditions: agar plate containing Haemophilus influenza
# Source text: as §1
# Neisseria gonorrhorea = conditions: agar plate containing Neisseria gonorrhorea
# Source text: as §1
# [1] = tested on: Methicillin resistant Staphylococcus aureus; conditions: agar plate containing Methicillin resistant Staphylococcus aureus
# Source text: as §1
# Escherichia coli = conditions: agar plate containing Escherichia coli
# Source text: as §1
structure (smiles),measurement,setting,value
"O.O=c1[n-]c2c(=O)[nH]c(=O)[nH]c2[nH]1.[Na+] [Monosodium Urate Monohydrate, monosodium urate monohydrate]",bacteriocidal activity,Staphylococcus aureus; against S. aureus,exhibited bacteriocidal activity
same,Antimicrobial activity (growth inhibition),Staphylococcus aureus; agar plate containing Staphylococcus aureus,Inhibited growth
same,Antimicrobial activity (growth inhibition),Serratia Marcessens,Did not inhibit growth
same,Antimicrobial activity (growth inhibition),Neisseria meningitis,Inhibited growth
same,Antimicrobial activity (growth inhibition),Staphylococcus pyogenes,Inhibited growth
same,Antimicrobial activity (growth inhibition),Haemophilus influenza,Did not inhibit growth
same,Antimicrobial activity (growth inhibition),Neisseria gonorrhorea,Inhibited growth
same,Antimicrobial activity (growth inhibition),[1],Did not inhibit growth
same,Antimicrobial activity (growth inhibition),Escherichia coli,Did not inhibit growth
